In the test the target is T1, human GPR119 (hGPR119) (Homo sapiens, UniProt Q8TDV5).
T1 construct: expressed in transfected cells
T1 sequence (Q8TDV5 1-335): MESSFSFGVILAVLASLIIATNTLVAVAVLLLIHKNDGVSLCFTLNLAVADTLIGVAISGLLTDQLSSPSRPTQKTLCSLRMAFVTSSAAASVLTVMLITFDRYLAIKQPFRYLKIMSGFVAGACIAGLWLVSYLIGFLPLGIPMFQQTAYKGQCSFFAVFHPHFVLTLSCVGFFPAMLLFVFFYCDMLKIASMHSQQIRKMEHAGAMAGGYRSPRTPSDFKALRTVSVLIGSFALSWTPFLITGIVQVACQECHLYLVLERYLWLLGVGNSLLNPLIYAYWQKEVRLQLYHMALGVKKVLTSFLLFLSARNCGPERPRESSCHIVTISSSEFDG
Nature of the test: cAMP accumulation assay (Cisbio cAMP Gs dynamic HTRF kit) in CHO-K1 cells stably expressing human GPR119. To be noted: 4-parameter fit; for Emax: 1 h, % activity normalized to Max and Min controls; for EC50: 60 minutes at 37° C. In kind it is cell-based. How it is done: CHO-K1 cells stably expressing human GPR119 (hGPR119) were prepared by transfection of a GPR119-carrying plasmid using Lipofectamine 2000 (following manufacturer instructions). A stable cell line was established using the limiting dilution method with geneticine selection. Assay-ready frozen (ARF) cells were prepared and used throughout the study.
The assay was performed in a 384-well plate format using the cAMP Gs dynamic assay kit from Cisbio. ARF cells expressing hGPR119 were thawed, washed and then resuspended in cAMP stimulation buffer at a cell density of 1.1×10^6 cells/mL. Cells were plated at a density of ˜10,000 cells/well (9 μL/well). Dose response curves for the tested compounds were prepared in a cAMP stimulation buffer, containing 0.1% Tween 80 at 4 fold the final concentration. The compounds were then transferred to the cell plates using BRAVO (3 μL/well) and the plates were incubated for 60 minutes at 37° C./5% CO2. Detection buffer (10 μL, prepared as described in the cAMP Gs dynamic kit) were added to each well, and the plates were incubated at ambient temperature for 1 hr.
RT-FRET was measured using a ClarioSTAR plate reader, calculating the ratio between emissions at 665 nm and 620 nm (HTRF ratio). The HTRF ratio for positive (Max) and negative (Min) controls were used to normalize HTRF data and generate values for % activity. EC50 and Max activity values were determined using a standard 4-parameter fit.

Data on 8 compounds can be found in patent US20240217983A1, “GPR119 AGONISTS” (Kallyope, Inc., priority 2021, published 2024).

`O=C(Cc1ccc(OCCCC2CCN(c3ncc(Cl)cn3)CC2)cc1F)N1CCC2(CCCN2C[C@H](O)[C@@H](O)[C@H](O)[C@H](O)CO)C1` (stereo in doubt) [Example 75, 2-(4-(3-(1-(5-chloropyrimidin-2-yl)piperidin-4-yl)propoxy)-2-fluorophenyl)-1-(1-((2S,3R,4R,5R)-2,3,4,5,6-pentahydroxyhexyl)-1,7-diazaspiro[4.4]nonan-7-yl)ethan-1-one] came in with an Emax of no less than 130% and an EC50 of no more than 100 nM.

In turn, `O=C(Cc1ccc(OCCCC2CCN(c3ncc(Cl)cn3)CC2)cc1F)N1CCC2(CCCC2NC[C@H](O)[C@@H](O)[C@H](O)[C@H](O)CO)C1` (stereo in doubt) [Example 77, 2-(4-(3-(1-(5-chloropyrimidin-2-yl)piperidin-4-yl)propoxy)-2-fluorophenyl)-1-(6-(((2S,3R,4R,5R)-2,3,4,5,6-pentahydroxyhexyl)amino)-2-azaspiro[4.4]nonan-2-yl)ethan-1-one] gave an Emax of no less than 130% and an EC50 of no more than 100 nM.

In turn, `O=C(Cc1ccc(OCCCC2CCN(c3ncc(Cl)cn3)CC2)cc1F)N1CC2(CCC2NC[C@H](O)[C@@H](O)[C@H](O)[C@H](O)CO)C1` (stereo in doubt) [Example 79, 2-(4-(3-(1-(5-chloropyrimidin-2-yl)piperidin-4-yl)propoxy)-2-fluorophenyl)-1-(5-(((2S,3R,4R,5R)-2,3,4,5,6-pentahydroxyhexyl)amino)-2-azaspiro[3.3]heptan-2-yl)ethan-1-one] gave an Emax of no less than 130% and an EC50 of no more than 100 nM.

Turning to `O=C(Cc1ccc(OCCCC2CCN(c3ncc(Cl)cn3)CC2)cc1F)N1CC[C@]2(CCC2NCC(O)C(O)C(O)CO)C1` (stereo in doubt) [Example 84, 2-(4-(3-(1-(5-chloropyrimidin-2-yl)piperidin-4-yl)propoxy)-2-fluorophenyl)-1-(1-(((2S,3S,4R)-2,3,4,5-tetrahydroxypentyl)amino)-6-azaspiro[3.4]octan-6-yl)ethan-1-one], the Emax was no less than 130% and the EC50 is no more than 100 nM.

With `O=C(CCCCS(=O)(=O)O)N1CCC2(CCN(C(=O)Cc3ccc(OCCCC4CCN(c5ncc(Cl)cn5)CC4)cc3F)C2)C1` (stereo not shown) [Example 1, 5-(7-(2-(4-(3-(1-(5-chloropyrimidin-2-yl)piperidin-4-yl)propoxy)-2-fluorophenyl)acetyl)-2,7-diazaspiro[4.4]nonan-2-yl)-5-oxopentane-1-sulfonic acid], the Emax was in the range of 100 to 130% and the EC50 was no more than 100 nM.

`O=C(Cc1ccc(OCCCC2CCN(c3ncc(Cl)cn3)CC2)cc1F)N1CCC2(C1)CN(C(=O)CCCCS(=O)(=O)O)C2` [Example 2, 5-(6-(2-(4-(3-(1-(5-chloropyrimidin-2-yl)piperidin-4-yl)propoxy)-2-fluorophenyl)acetyl)-2,6-diazaspiro[3.4]octan-2-yl)-5-oxopentane-1-sulfonic acid] showed an Emax of no less than 130% and an EC50 of no more than 100 nM.

Take `O=C(CCCCS(=O)(=O)O)N1CC2(C1)CN(C(=O)Cc1ccc(OCCCC3CCN(c4ncc(Cl)cn4)CC3)cc1F)C2` [Example 3, 5-(6-(2-(4-(3-(1-(5-chloropyrimidin-2-yl)piperidin-4-yl)propoxy)-2-fluorophenyl)acetyl)-2,6-diazaspiro[3.3]heptan-2-yl)-5-oxopentane-1-sulfonic acid]: the Emax was 100 to 130% and the EC50 was no more than 100 nM.

As for `O=C(Cc1ccc(OCCCC2CCN(c3ncc(Cl)cn3)CC2)cc1F)N1CCC2(CCN2C(=O)CCCCS(=O)(=O)O)C1` (stereo not shown) [Example 4, 5-(6-(2-(4-(3-(1-(5-chloropyrimidin-2-yl)piperidin-4-yl)propoxy)-2-fluorophenyl)acetyl)-1,6-diazaspiro[3.4]octan-1-yl)-5-oxopentane-1-sulfonic acid], the Emax is 100 to 130% and the EC50 was no more than 100 nM.
